Source: patent EP0564461B1, “THE USE OF ANTIBODIES TO TNF OR FRAGMENTS DERIVED THEREOF AND XANTHINE DERIVATIVES FOR COMBINATION THERAPY AND COMPOSITIONS THEREFOR” (CELLTECH THERAPEUTICS LIMITED, priority 1990, dated 1992)
Where two headings read alike, the source gives them in different places.

Legend:
[1] = test system: Salmonella abortus equi LPS induced shock; assay: Salmonella abortus equi LPS induced shock model in galactosamine sensitised mice (inhibition of mortality); type: in vivo, C57BL mice; details: 100mg/kg pentoxifylline alone; Fig 5
Protocol: Similar experiments to those described above were carried out in galactosamine sensitised C57BL mice which were challenged with LPS from Salmonella abortus equi. Mortality was measured 96 hrs after the LPS challenge.

E.coli LPS induced shock = details: Fig 1
Protocol: In a first experiment outbred mice were divided into groups and received treatment either with a hamster anti-murine TNF antibody TN3 19.12 or with the xanthine derivative, pentoxifylline.
Each group of animals received 60mg/kg E.coli LPS by intravenous injection into a tail vein.
Those groups of animals treated with TN3 19.12 received between 0.1 and 30mg/kg of the antibody by intravenous injection of 0.1ml of liquid into the tail vein 2 hours before LPS administration.
Those groups to be treated with pentoxifylline received between 1mg/kg and 300mg/kg intravenously five minutes prior to LPS administration.
In control experiments animals received an injection of an equivalent volume of saline.
The groups received one of three different treatment as follows: • A) Control - received 60mg/kg E.coli LPS intravenously followed by saline injection; • B) Received 1mg/kg TN3 19.12 i.v. 2 hrs prior to challenge with 60mg/kg E.coli LPS i.v. and 1mg/kg pentoxifylline i.v. 5 mins prior to challenge; • C) As B) but these mice also received repeat doses of 1mg/kg pentoxifylline 24,48 and 72 hours after LPS challenge.

## CC(=O)CCCCn1c(=O)c2c(ncn2C)n(C)c1=O [pentoxifylline, 3,7-dimethyl-1-(5-oxohexyl)xanthine]
[1]
  protective effect (mortality): no protective effect
E.coli LPS induced shock; pentoxifylline alone 1mg/kg i.v. five minutes prior to 60mg/kg E.coli LPS i.v.
  effect on mortality (mean deaths per experiment): no effect
E.coli LPS induced shock; pentoxifylline alone at higher doses than 1mg/kg (up to 300mg/kg) i.v. five minutes prior to LPS
  effect on mortality (mean deaths per experiment): accelerated mortality
